These results are taken from PMC5372986, “Diminished Antimicrobial Peptide and Antifungal Antibiotic Activities against Candida albicans in Denture Adhesive” (Antibiotics, 2017).

Values after ≈ are worked out from the molar mass of the structure shown. Where a name gives a salt, the structure may show the parent alone. Read-outs that look alike come from different tables or passages of the source. Some results are limits rather than exact numbers.

One assay concerns C. albicans ATCC 64124. The assay can be described thus: microbe, parasite or virus in culture. The note with it: for Activity in gels with 1.0% denture adhesive compared with gels without / Minimal inhibitory concentration (MIC): C. albicans ATCC 64124; for Activity in gels with 1.0% denture adhesive compared with gels without: result in words, Tukey HSD, 0.05 level; for MIC: Candida albicans. The method, then:
(§1) C. albicans strains ATCC 64124 and HMV4C were used and cultivated as previously described. Their identities were verified (State Hygienic Laboratory, University of Iowa Research Park, Coralville, IA, USA). These cultures were adjusted to contain 1.2–3.7 × 10^6 CFU/mL in Roswell Park Memorial Institute (RPMI) 1640 medium.
(§2) The denture adhesive used was a standard, over-the-counter gel containing poly sodium-calcium mixed partial salt, petrolatum, cellulose gum, and mineral oil and was prepared as previously described. Denture adhesive was too viscous to use directly and was diluted to 1.0% for incorporation into the radial diffusion assay.
(§3) Each agent was reconstituted in distilled water with 0.01% acetic acid for resuspension to keep the agent in solution. Two-fold dilutions were prepared.
(§4) The radial diffusion assays were performed as described with the following unique modifications. Underlay agarose gels were prepared with and without 1.0% denture adhesive in square petri dishes (Electron Microscopy Sciences, Hatfield, PA, USA). Plates without 1.0% adhesive contained 12.5 mL of 10.0 mM sodium phosphate buffer adjusted to pH 7.4, 12.5 mL of 2.0% agarose (Agarose LE, Roche Diagnostics Corporation, Indianapolis, IN, USA) in 10.0 mM sodium phosphate adjusted to pH 7.4, and 1.0 mL of C. albicans culture per plate. Plates with 1.0% adhesive contained 12.5 mL of 2.0% dental adhesive in 10.0 mM sodium phosphate adjusted to pH 7.4, 12.5 mL 2.0% agarose (Agarose LE, Roche Diagnostics Corporation, Indianapolis, IN, USA) in 10.0 mM sodium phosphate adjusted to pH 7.4, and 1.0 mL of C. albicans culture. Wells of 2.0 mm in diameter were created and filled with 5.0 µL of AMP or antifungal antibiotic dilution (n = three replications per test). A blank of 0.01% acetic acid in distilled water was also included. The plates were incubated at 37 °C for 3 h. After incubation, 10.0 mL of overlay containing 1.0% agarose in 10.0 mM phosphate buffer with 6.0% RPMI 1640, was added to each plate. The plates were incubated at 37 °C overnight. At 24 h, antimicrobial activity was determined by measuring the zone of clearance around the center of each well and extrapolating MIC as described.
(§5) When MICs fell outside the range of the assay, we considered the MIC to be equal to the highest concentration used in the assay. […] One-way fixed-effects ANOVA models were fit to the µM MIC values. Pairwise group comparisons were conducted using the method of Tukey’s Honest Significant Differences (HSD). A 0.05 level was used to determine statistically significant differences. All analyses were conducted using JMP (Version 10.0, SAS, Cary, NC, USA).

A further assay has as its system C. albicans HMV4C. The assay can be described thus: microbe, parasite or virus in culture. The note with it: radial diffusion; for Activity in gels with 1.0% denture adhesive compared with gels without / Minimal inhibitory concentration (MIC): C. albicans HMV4C; for Activity in gels with 1.0% denture adhesive compared with gels without: result in words, Tukey HSD, 0.05 level; for MIC: Candida albicans, HMV4C; for MIC / Minimal inhibitory concentration (MIC): mean (standard error, n = 3). As to the method: as §1, §2, §3, §4, §5

The next assay relates to Candida albicans. Conditions: broth microdilution, p < 0.05; cited from earlier work. An excerpt: Candida species infections can cause complications for individuals with dentures, such as denture stomatitis.
Setting [1] is: ATCC64124, 24 h, pH 7.4, read-out: Minimal inhibitory concentration (MIC), C. albicans ATCC 64124, Adhesive (1.0% denture adhesive in gel), radial diffusion, pH 7.4, 37 °C, read at 24 h, mean (standard error, n = 3).
[2] abbreviates: ATCC64124, 24 h, pH 7.4, read-out: Minimal inhibitory concentration (MIC), C. albicans ATCC 64124, No Adhesive, radial diffusion, pH 7.4, 37 °C, read at 24 h, mean (standard error, n = 3).
[3] abbreviates: ATCC64124, read-out: Minimal inhibitory concentration (MIC), C. albicans ATCC 64124, Adhesive (1.0% denture adhesive in gel), radial diffusion, mean (standard error, n = 3).
[4] abbreviates: ATCC64124, read-out: Minimal inhibitory concentration (MIC), C. albicans ATCC 64124, No Adhesive, radial diffusion, mean (standard error, n = 3).
Where [5] appears, read: 24 h, pH 7.4, read-out: Minimal inhibitory concentration (MIC), C. albicans HMV4C, Adhesive (1.0% denture adhesive in gel), pH 7.4, 37 °C, read at 24 h.
Where [6] appears, read: 24 h, pH 7.4, read-out: Minimal inhibitory concentration (MIC), C. albicans HMV4C, No Adhesive, agarose in 10.0 mM sodium phosphate pH 7.4, 37 °C, read at 24 h.
[7] abbreviates: read-out: Minimal inhibitory concentration (MIC), C. albicans HMV4C, Adhesive (1.0% denture adhesive in gel).
Where [8] appears, read: read-out: Minimal inhibitory concentration (MIC), C. albicans HMV4C, No Adhesive.
Where [9] appears, read: Adhesive (1.0% denture adhesive in gel), radial diffusion, pH 7.4, 37 °C, read at 24 h, mean (standard error, n = 3).
Where [10] appears, read: Adhesive (1.0% denture adhesive in gel), radial diffusion, mean (standard error, n = 3).
The mark [11] stands for this setting: No Adhesive, radial diffusion, pH 7.4, 37 °C, read at 24 h, mean (standard error, n = 3).
The mark [12] stands for this setting: No Adhesive, radial diffusion, mean (standard error, n = 3).
Setting [13] is: Adhesive (1.0% denture adhesive in gel), pH 7.4, 37 °C, read at 24 h.
[14] abbreviates: Adhesive (1.0% denture adhesive in gel).
The mark [15] stands for this setting: No Adhesive, agarose in 10.0 mM sodium phosphate pH 7.4, 37 °C, read at 24 h.

Consider `C[C@@H]1[C@H](O)[C@@H](C)/C=C/C=C/C=C/C=C/C=C/C=C/C=C/[C@H](O[C@@H]2O[C@H](C)[C@@H](O)[C@H](N)[C@@H]2O)C[C@@H]2O[C@](O)(C[C@@H](O)C[C@@H](O)[C@H](O)CC[C@@H](O)C[C@@H](O)CC(=O)O[C@H]1C)C[C@H](O)[C@H]2C(=O)O` [Amphotericin B], for which the “Activity in gels with 1.0% denture adhesive compared with gels without” value in the assay with C. albicans ATCC 64124 (radial diffusion) and in the assay on C. albicans HMV4C was “same” each time. The MIC in the assay on C. albicans ATCC 64124 (setting [1]) came to 16.6 µg/mL; in the assay with C. albicans ATCC 64124 (setting [2]), 6 µg/mL; in the assay on C. albicans ATCC 64124 (setting [3]) it was 18 µM; in the assay on C. albicans ATCC 64124 (setting [4]), 6.5 µM; with C. albicans HMV4C (setting [5]), 6.2 µg/mL; in the assay on C. albicans HMV4C (setting [6]), 5.4 µg/mL. For the same compound, the figures for the MIC in the assay on C. albicans HMV4C (setting [7]) and in the assay on C. albicans HMV4C (setting [8]) were 6.7 µM and 5.8 µM, respectively. Moreover, the “Loss of antimicrobial activity in 1.0% denture adhesive” value (“Loss … in 1.0% denture adhesive” below) with Candida albicans is reported as “did not”.
With `[H]/N=C(\N/C(=N/[H])NCCCCCCNC(=N)NC(=N)Nc1ccc(Cl)cc1)Nc1ccc(Cl)cc1` [Chlorhexidine dihydrochloride], the “Activity in gels with 1.0% denture adhesive compared with gels without” value in the assay with C. albicans ATCC 64124 (radial diffusion) and with C. albicans HMV4C was “same” each time. The MIC in the assay on C. albicans ATCC 64124 (setting [1]) was 4.6 µg/mL; in the assay with C. albicans ATCC 64124 (setting [2]) it was 6.9 µg/mL; in the assay on C. albicans ATCC 64124 (setting [3]), 8 µM; in the assay with C. albicans ATCC 64124 (setting [4]), 11.9 µM; in the assay with C. albicans HMV4C (setting [5]), 11.1 µg/mL; in the assay with C. albicans HMV4C (setting [6]), 5.7 µg/mL. Further, the MIC in the assay with C. albicans HMV4C (setting [7]) was 19.2 µM; in the assay on C. albicans HMV4C (setting [8]), 9.9 µM. Moreover, the “Loss … in 1.0% denture adhesive” value in the assay on Candida albicans is given as “did not”.
As for `N=C(NCCCCCCNC(=N)NC(=N)Nc1ccc(Cl)cc1)NC(=N)Nc1ccc(Cl)cc1.O=C(O)[C@H](O)[C@@H](O)[C@H](O)[C@H](O)CO.O=C(O)[C@H](O)[C@@H](O)[C@H](O)[C@H](O)CO` [Chlorhexidine gluconate], the “Minimal inhibitory concentration (MIC)” value in the assay with C. albicans ATCC 64124 (setting [9]) is 81.6 (3.2) µg/mL; in the assay with C. albicans ATCC 64124 (setting [10]), 90.9 (3.6) µM; in the assay on C. albicans ATCC 64124 (setting [11]), 4.1 (0.2) µg/mL; in the assay with C. albicans ATCC 64124 (setting [12]) it was 4.6 (0.2) µM; with C. albicans HMV4C (setting [13]) it was 0.7 (0.4) µg/mL; in the assay on C. albicans HMV4C (setting [14]), 0.8 (0.4) µM. Besides, the results for the “Minimal inhibitory concentration (MIC)” value in the assay with C. albicans HMV4C (setting [15]) and in the assay with C. albicans HMV4C (No Adhesive) were 6.3 (0.1) µg/mL and 7.0 (0.1) µM, respectively. Moreover, the “Activity in gels with 1.0% denture adhesive compared with gels without” value in the assay with C. albicans ATCC 64124 (radial diffusion) is “diminished antimicrobial activity”; in the assay with C. albicans HMV4C it was “same antimicrobial activity”. The “Loss … in 1.0% denture adhesive” value with Candida albicans was “did not”.
Take `OC(Cn1cncn1)(Cn1cncn1)c1ccc(F)cc1F` [Fluconazole]: in the assay on C. albicans ATCC 64124 (in both gels with or without 1.0% denture adhesive), the “Minimal inhibitory concentration (MIC)” value is 3265.1 µM (≈ 1000 µg/mL). The “Activity in gels with 1.0% denture adhesive compared with gels without” value in the assay on C. albicans ATCC 64124 (radial diffusion) and with C. albicans HMV4C was “same” in each case. Besides, the MIC in the assay with C. albicans ATCC 64124 (setting [1]) was above 1000 µg/mL; in the assay on C. albicans ATCC 64124 (setting [2]), above 1000 µg/mL; in the assay with C. albicans ATCC 64124 (setting [3]), above 3270 µM; with C. albicans ATCC 64124 (setting [4]), above 3270 µM; in the assay on C. albicans ATCC 64124 (ATCC64124, read-out: Minimal inhibitory concentration (MIC), C. albicans ATCC 64124, in both gels with or without 1.0% denture adhesive), above 1000 µg/mL; with C. albicans HMV4C (setting [5]), 8.1 µg/mL. Further, the figures for the MIC in the assay with C. albicans HMV4C (setting [6]), in the assay with C. albicans HMV4C (setting [7]) and in the assay with C. albicans HMV4C (setting [8]) were 3.9 µg/mL, 26.4 µM and 12.7 µM, respectively. In addition, the “Loss … in 1.0% denture adhesive” value in the assay with Candida albicans was “did not”.
In the case of `CC[C@H](C)[C@@H]1NC(=O)[C@H](CO)NC(=O)[C@@H]2CCCN2C(=O)[C@H](C)NC(=O)CNC(=O)[C@H](CC(C)C)NC(=O)[C@H](CCCCN)NC(=O)[C@H](CCCCN)NC(=O)[C@H](CCSC)NC(=O)[C@H](CCCNC(=N)N)NC(=O)[C@H](Cc2c[nH]c3ccccc23)NC(=O)[C@H](CCC(N)=O)NC(=O)[C@H](Cc2c[nH]c3ccccc23)NC(=O)[C@H](CCCNC(=N)N)NC(=O)[C@H](CCCNC(=N)N)NC(=O)[C@@H](NC(=O)[C@H](CCCCN)NC(=O)[C@@H](N)Cc2ccccc2)CSSC[C@@H](C(=O)N[C@H](C(=O)N[C@@H](CCCNC(=N)N)C(=O)N[C@@H](CCCNC(=N)N)C(=O)N[C@@H](C)C(=O)N[C@@H](Cc2ccccc2)C(=O)O)C(C)C)NC(=O)[C@H]([C@@H](C)O)NC1=O` [Lactoferricin B], the “Activity in gels with 1.0% denture adhesive compared with gels without” value in the assay with C. albicans ATCC 64124 (radial diffusion) and in the assay on C. albicans HMV4C was “diminished activity” throughout. In addition, the “Loss … in 1.0% denture adhesive” value in the assay on Candida albicans is reported as “lost antimicrobial activity”.
Turning to `C[C@@H]1[C@H](O)[C@@H](C)/C=C/C=C/CC/C=C/C=C/C=C/C=C/C(O[C@H]2O[C@H](C)[C@@H](O)[C@H](N)[C@@H]2O)CC2O[C@](O)(CC(O)C(O)CCC(O)CC(O)CC(O)CC(=O)O[C@H]1C)CC(O)C2C(=O)O` (stereo partly drawn) [Nystatin], the “Minimal inhibitory concentration (MIC)” value with C. albicans ATCC 64124 (setting [9]) was 61.0 (2.5) µg/mL; in the assay on C. albicans ATCC 64124 (setting [10]), 65.9 (2.7) µM; in the assay with C. albicans ATCC 64124 (setting [11]) it was 9.7 (0.2) µg/mL; in the assay on C. albicans ATCC 64124 (setting [12]), 10.5 (0.2) µM; with C. albicans HMV4C (setting [13]), 137.2 (8.2) µg/mL; in the assay with C. albicans HMV4C (setting [14]) it was 148.1 (8.9) µM. The figures for the “Minimal inhibitory concentration (MIC)” value in the assay on C. albicans HMV4C (setting [15]) and in the assay on C. albicans HMV4C (No Adhesive) were 9.4 (0.2) µg/mL and 10.2 (0.2) µM, respectively. For the same compound, the “Activity in gels with 1.0% denture adhesive compared with gels without” value in the assay on C. albicans ATCC 64124 (radial diffusion) and in the assay on C. albicans HMV4C was “diminished” throughout. Besides, the “Loss … in 1.0% denture adhesive” value in the assay with Candida albicans is given as “did not”.
